BindingDB's records for doi:10.1016/S0960-894X(96)00551-3 (1996)

Tests used:
[1] = biological target: Endothelin A receptor (Oryctolagus cuniculus); assay: Antagonistic activity against endothelin A receptor in rabbit renal artery vascular smooth muscle cells.
[2] = biological target: Endothelin A receptor (Oryctolagus cuniculus); assay: Compound was tested for its ability to inhibit Endothelin A receptor induced arachidonic acid release(AARA) in rabbit renal artery vascular smooth muscles.
[3] = as above

Row | IC50 [1] [µM] | IC50 [2] [µM] | SMILES | other results
1 | 8.7 |  | O=C(OCc1ccc2c(c1)OCO2)C(c1ccc2c(c1)OCO2)c1c2ccccc2nc2ccccc12 (stereo unspecified) [Acridin-9-yl-benzo[1,3]dioxol-5-yl-acetic acid benzo[1,3]dioxol-5-ylmethyl ester] | 
2 | > 25 |  | COC(=O)C(Cc1c2ccccc2cc2ccccc12)c1ccc2c(c1)OCO2 (stereo unspecified) [3-Anthracen-9-yl-2-benzo[1,3]dioxol-5-yl-propionic acid methyl ester] | 
3 |  | 13 | Cc1cc(C(C(N)=O)c2ccc3c(c2)OCO3)c2ccccc2n1 (stereo unspecified) [2-Benzo[1,3]dioxol-5-yl-2-(2-methyl-quinolin-4-yl)-acetamide] | 
4 | 7.5 |  | O=C(OCc1ccccc1)C(c1ccc2c(c1)OCO2)c1c2ccccc2nc2ccccc12 (stereo unspecified) [Acridin-9-yl-benzo[1,3]dioxol-5-yl-acetic acid benzyl ester] | 
5 |  | 2.8 | COC(=O)C(c1ccc2c(c1)OCO2)c1cc(C)nc2ccccc12 (stereo unspecified) [Benzo[1,3]dioxol-5-yl-(2-methyl-quinolin-4-yl)-acetic acid methyl ester] | 
6 |  |  | OCC(c1ccc2c(c1)OCO2)c1c2ccccc2nc2ccccc12 (stereo unspecified) [2-Acridin-9-yl-2-benzo[1,3]dioxol-5-yl-ethanol] | IC50 [3]: 10 µM
